The subject of series [1] is MPTP-induced male mice. Nature of the series: Dopamine ELISA in SN and STR, MPTP-induced mice. The series is classed as in vivo, mouse. As to conditions: for DA: individual animals. On the procedure: (§1) MPTP (Sigma-Aldrich) was intraperitoneally (i.p.) injected (30 mg/kg) for 5 days (Day 1-5). […] To test dyskinetic involuntary behavior, an L-DOPA injected group was included, which received 50 mg/kg of L-DOPA and 15 mg/kg of benserazide (Sigma-Aldrich) (i.p.) for 16 days (Day 1–16). All compounds were administered 6 h post-MPTP injection to avoid any effect of compounds on the MPTP metabolism in the brain. Motor and non-motor related behavior tests were performed on the following days as described in Fig. 4a in an assessor- and observer-blinded fashion. Pre-training and baseline setup for motor-related behaviors were performed 3 days prior to the injections. Mice were sacrificed and subjected to immunohistochemistry. Mice were housed at the Animal Care Facilities of McLean Hospital under a 12-h light/12-h dark cycle, ambient temperature and humidity. Animals were handled in accordance with McLean Hospital’s Institutional Animal Care and Use Committee (Protocol #: 2015N000002) and followed National Institutes of Health guidelines.
For MPTP-induced mice, the left hemisphere of each group (n = 5) was used for analysis and compared to the vehicle-treated group (VEH). For AAV-αSyn-injected mouse model, the viral vector injected side (left hemisphere; ipsilateral) of each group (n = 3) was compared to the non-injected side (right hemisphere; contralateral).
(In an ELISA, binding on a coated surface is turned into a signal by an enzyme label.)

The next series relates to Nurr1 protein. Nature of the series: Nurr1 protein level, Western blot, MN9D cells with MPP+ or αSyn overexpression. The format is cell-based, mouse. As to conditions: for Relative Nurr1 expression (% of Cont.): Fig. S4g; for Relative Nurr1 expression (% of +GFP Basal): Fig. S4i. The method, then:
Experiments were confirmed by duplicate measurements of the same sample. Quantification of immunoreactive bands was performed using ImageJ software (NIH, Bethesda, MD, USA) and expressed as a relative ratio against β-actin.
Lenti-GFP, -αSyn^WT, and -αSyn^A53T viruses were generated separately by co-transfecting each shuttle plasmid with lentivirus packaging plasmids into HEK293T cells using lipofectamine 2000 (Invitrogen). Briefly, 2 μg each FUW inducible shuttle plasmid, 2 μg FUW-rtTA, 2 μg psPax2 and 1.5 μg MD2.G were mixed and transfected into HEK293T cells. After 48 h, viral supernatants were collected and centrifuged at 1000g for 10 min, and subsequently filtered through a 0.45 μm filter. Lentiviruses were transduced into MN9D cells with 8 μg/ml of polybrene and the viral supernatant was removed and replaced with fresh medium a day after transduction.
(In general: A western blot detects proteins with antibodies after separation by electrophoresis.)

For series [2], the system named is MPTP-induced male mice. Nature of the series: AIMs scoring (dyskinesia), MPTP-induced PD model mice. The format is in vivo, mouse. The conditions noted are these: for abnormal involuntary movements (AIMs) (in words): CQ 40, 4A7C-301 5, L-DOPA 50 mg/kg/day, i.p.; for AIMs score (20-140 min): Figure 4f, MPTP-induced mice, individual animal values. On the procedure: Male C57BL/6 J mice (8–10 weeks, 25–30 g; Jackson Laboratories) were randomly assigned to 5 groups including vehicle (VEH), MPTP, MPTP + L-DOPA, MPTP + CQ and MPTP + 4A7C-301 (n ≥ 7 for each group). MPTP (Sigma-Aldrich) was intraperitoneally (i.p.) injected (30 mg/kg) for 5 days (Day 1-5). Different dosages of CQ (20, 40, and 80 mg/kg) and 4A7C-301 (1, 5, 20 mg/kg) were first tested to determine the effective dose window, then 40 and 5 mg/kg doses were finally selected for CQ and 4A7C-301 respectively to show the most prominent effects. CQ or 4A7C-301 was dissolved in PBS and administrated (i.p.) for 16 days starting with MPTP injection (Day 1-16). To test dyskinetic involuntary behavior, an L-DOPA injected group was included, which received 50 mg/kg of L-DOPA and 15 mg/kg of benserazide (Sigma-Aldrich) (i.p.) for 16 days (Day 1–16). All compounds were administered 6 h post-MPTP injection to avoid any effect of compounds on the MPTP metabolism in the brain. Motor and non-motor related behavior tests were performed on the following days as described in Fig. 4a in an assessor- and observer-blinded fashion. Pre-training and baseline setup for motor-related behaviors were performed 3 days prior to the injections. Mice were sacrificed and subjected to immunohistochemistry. Mice were housed at the Animal Care Facilities of McLean Hospital under a 12-h light/12-h dark cycle, ambient temperature and humidity. Animals were handled in accordance with McLean Hospital’s Institutional Animal Care and Use Committee (Protocol #: 2015N000002) and followed National Institutes of Health guidelines.
Abnormal involuntary movements (AIMs) were scored using the developed mouse dyskinesia rating scale as described in Sebastianutto et al.. Briefly, 4 mice were recorded simultaneously with a Swann HD Security System (B&H Photo-Video Inc.) for 2 min per session, every 20 min during the 140 min following drug injections (i.e., total 7 sessions), on every other or third day (Day 2, 4, 7, 9, 11, 13, and 16). Dyskinetic movements were scored for 3 subtypes of basic AIMs including axial, forelimb and orolingual AIMs, based on the severity scale from 0 to 4 which measures the duration of AIMs (0 = no dyskinesia; 1 = display dyskinesia for <50% of the observation time; 2 = display dyskinesia for >50% of the observation time; 3 = display dyskinesia for the entire observation period but ceased upon external stimuli; 4 = display continuous and unceasing dyskinesia). To get a better and more sensitive validation of mice dyskinesia, we included an amplitude AIMs score, which rates the degree of deviation of body part or muscle position from its resting position on a 0-4 scale as previously described. Finally, global AIMs score was calculated by multiplying basic AIMs and amplitude AIMs scores for each subtype on each session. Data points were plotted as the grand total of individual AIMs score on each testing day.

Series [3] relates to MPTP-induced male mice. Nature of the series: Rotarod, sub-chronic MPTP-induced PD model mice. As to conditions: for Latency to fall: Figure 4b, MPTP-induced mice, individual animal values. The format is in vivo, mouse. On the procedure:
as §1
Mice were pre-trained on an automated 5-lane rotarod unit (10 rpm, 3 min) for 2 days and the baseline was measured (10 rpm, 90 sec) before the rotarod test (3 days before the MPTP injection or the first rotarod test at week 2). Rotarod measurements were performed using an accelerating protocol, accelerated smoothly from 2 to 30 rpm for 5 min. Time on the rotating rod was measured automatically by placing a trip switch under the floor beneath the rotating drum.
Background: The rotarod test checks motor coordination on a turning rod.

Where [4] appears, read: against MPP+ and αSynWT overexpression.

“And” between values parts separate entries of the source, which are not always exact repeats. Equal entries are not always repeated.

In the case of `CCN1CCN(c2cc(N3CCN(CC)CC3)nc(NCCNc3ccnc4cc(Cl)ccc34)n2)CC1` [4A7C-301, N^1-(4,6-bis(4-ethylpiperazin-1-yl)pyrimidin-2-yl)-N^2-(7-chloroquinolin-4-yl)ethane-1,2-diamine], the “DA levels in the SN (in words)” value in the series with MPTP-induced male mice [1] was “significantly restored”. In addition, in the series with MPTP-induced male mice [1], the “DA levels in the STR (in words)” value was “significantly restored”. Further, the DA in the series on MPTP-induced male mice [1] (Supplementary Figure S10b) was 62.619 pg/mL and 53.876 pg/mL and 49.863 pg/mL and 62.002 pg/mL and 54.392 pg/mL; in the series with MPTP-induced male mice [1] (Supplementary Figure S10c), 384.546 pg/mL and 562.262 pg/mL and 361.203 pg/mL and 377.923 pg/mL and 404.591 pg/mL. Besides, the “Relative Nurr1 expression (% of Cont.)” value was 99.091 % of Cont. and 100.486 % of Cont. and 100.693 % of Cont with Nurr1 protein (w/ MPP+); 101.351 % of Cont. and 99.92 % of Cont. and 104.55 % of Cont in the series with Nurr1 protein (w/o MPP+). Moreover, the “Relative Nurr1 expression (% of +GFP Basal)” value is 98.029 % of +GFP Basal and 101.483 % of +GFP Basal and 98.211 % of +GFP Basal in the series on Nurr1 protein (+ GFP); 84.572 % of +GFP Basal and 86.142 % of +GFP Basal and 86.409 % of +GFP Basal in the series with Nurr1 protein (+ αSynA53T); 92.781 % of +GFP Basal and 95.357 % of +GFP Basal and 90.953 % of +GFP Basal in the series on Nurr1 protein (+ αSynWT). Besides, the results for the “Nurr1 protein levels (in words)” value with Nurr1 protein (setting [4]) and with Nurr1 protein (against αSynA53T overexpression) were “significantly restored” and “maintained”, respectively. Moreover, in the series on MPTP-induced male mice [2], the “abnormal involuntary movements (AIMs) (in words)” value is on record as “did not induce any detectable AIMs”. Also, the “AIMs score (20-140 min)” value in the series on MPTP-induced male mice [2] (day 2), in the series with MPTP-induced male mice [2] (day 4), with MPTP-induced male mice [2] (day 7), in the series with MPTP-induced male mice [2] (day 9), in the series on MPTP-induced male mice [2] (day 11) and in the series with MPTP-induced male mice [2] (day 13) was 0 in each case. Further, the “AIMs score (20-140 min)” value with MPTP-induced male mice [2] (day 16) is reported as 0. In addition, in the series on MPTP-induced male mice [3] (CQ 40, 4A7C-301 5, L-DOPA 50 mg/kg/day, i.p., 16 days), the “motor function, rotarod (in words)” value is listed as “significantly rescued”. The “Latency to fall” value in the series with MPTP-induced male mice [3] is 133.23 s and 202.2 s and 133.57 s and 139.3 s and 213.2 s and 211.5 s and 122.9 s and 231.93 s.
For `CCN(CC)CCCC(C)Nc1ccnc2cc(Cl)ccc12` (centres unmarked) [CQ, chloroquine], in the series with MPTP-induced male mice [1], the “DA levels in the SN (in words)” value is “did so only in the SN”. Moreover, the “DA levels in the STR (in words)” value with MPTP-induced male mice [1] is “only in the SN”. The DA was 49.362 pg/mL and 39.048 pg/mL and 57.173 pg/mL and 55.478 pg/mL and 57.153 pg/mL in the series on MPTP-induced male mice [1] (Supplementary Figure S10b); 418.063 pg/mL and 471.117 pg/mL and 318.027 pg/mL and 389.411 pg/mL and 268.088 pg/mL in the series on MPTP-induced male mice [1] (Supplementary Figure S10c). In addition, the “Nurr1 protein levels (in words)” value with Nurr1 protein (setting [4]) is given as “significantly restored”. Besides, in the series on MPTP-induced male mice [2], the “abnormal involuntary movements (AIMs) (in words)” value is on record as “did not induce any detectable AIMs”. For the same molecule, the “AIMs score (20-140 min)” value with MPTP-induced male mice [2] (day 2), in the series with MPTP-induced male mice [2] (day 4), in the series on MPTP-induced male mice [2] (day 7), with MPTP-induced male mice [2] (day 9), in the series with MPTP-induced male mice [2] (day 11) and in the series on MPTP-induced male mice [2] (day 13) was 0 each time. Also, the “AIMs score (20-140 min)” value in the series with MPTP-induced male mice [2] (day 16) was 0. Further, the “Latency to fall” value in the series with MPTP-induced male mice [3] was 188.53 s and 158.67 s and 132.1 s and 179.3 s and 127.13 s and 200.87 s and 173.6 s and 164.1 s.

Values taken from article PMC10354055, “An optimized Nurr1 agonist provides disease-modifying effects in Parkinson’s disease models” (Nature Communications, 2023).
